Source: patent US20220289753A1, “SHP2 INHIBITORS” (IRBM S.P.A., priority 2019, published 2022)

Key:
[1] = biological target: T1, SHP-2 enzyme (Met1-Leu525) (Homo sapiens, UniProt Q06124); experiment: SHP2 inhibition enzymatic assay (DiFMUP substrate, IRS1 peptide activation); assay type: biochemical; details: SHP2 wt; activated by 500 nM IRS1 peptide; 75 μM DiFMUP substrate
T1 construct: synthetized by Origene, Met1-Leu525, cat #TP750155; purchased Origene TP750155
T1 sequence (Q06124 1-525): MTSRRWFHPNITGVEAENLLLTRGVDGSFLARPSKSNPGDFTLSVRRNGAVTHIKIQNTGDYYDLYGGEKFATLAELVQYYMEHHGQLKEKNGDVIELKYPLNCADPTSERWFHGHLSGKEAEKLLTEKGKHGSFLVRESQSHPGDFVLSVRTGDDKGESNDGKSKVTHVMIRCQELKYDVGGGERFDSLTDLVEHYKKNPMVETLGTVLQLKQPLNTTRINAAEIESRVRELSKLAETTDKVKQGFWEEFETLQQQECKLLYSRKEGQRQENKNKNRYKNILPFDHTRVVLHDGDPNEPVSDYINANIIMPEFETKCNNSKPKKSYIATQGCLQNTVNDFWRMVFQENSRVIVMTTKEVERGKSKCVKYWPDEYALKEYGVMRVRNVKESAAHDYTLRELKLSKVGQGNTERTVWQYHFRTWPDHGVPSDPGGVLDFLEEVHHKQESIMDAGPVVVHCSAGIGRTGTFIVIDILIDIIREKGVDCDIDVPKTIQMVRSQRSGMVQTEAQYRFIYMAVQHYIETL
How it was run: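 SHP-2 (Met1-Leu525, 0.5 nM final) preincubated 30 min with compounds and IRS1 activating peptide in HEPES pH 7.2 buffer with NaCl, KCl, EDTA, tween-20, 5 mM DTT. DiFMUP then added for 30 min at room temperature and fluorescence read. IC50 from four-parameter logistic fit of % inhibition.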

[2] = tested on: ERK phosphorylation in KYSE-520 cells; experiment: Phospho-ERK cellular assay (Advanced phospho-ERK1/2 (Thr202/Tyr204) TR-FRET kit); assay type: cell-based; details: Homo sapiens, KYSE-520, 2 h, KYSE-520 cells, 2 h at 37° C., TR-FRET; read-out: pERK IC50
How it was run: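 KYSE-520 cells were treated 2 h at 37° C with serially diluted compounds, then lysed. Phospho-ERK1/2 (Thr202/Tyr204) was detected by TR-FRET after overnight antibody incubation at room temperature. IC50 came from a four-parameter logistic fit; lower signal reflects greater SHP2 inhibition.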

Structure (SMILES)	IC50 [1]	IC50 [2]
COc1nccc(Sc2cnc3[nH]c(N4CCC5(CC4)Cc4ccccc4[C@H]5N)nc3n2)c1Cl [Example 239, (S)-1′-(5-((3-chloro-2-methoxypyridin-4-yl)thio)-1H-imidazo[4,5-b]pyrazin-2-yl)-1,3-dihydrospiro[indene-2,4′-piperidin]-1-amine]	< 500 nM	1000 to 5000 nM
N#Cc1c[nH]c2nccc(Sc3cnc4[nH]c(N5CCC6(CC5)Cc5ccccc5[C@H]6N)nc4n3)c12 [Example 240, (S)-4-((2-(1-amino-1,3-dihydrospiro[indene-2,4′-piperidin]-1′-yl)-1H-imidazo[4,5-b]pyrazin-5-yl)thio)-1H-pyrrolo[2,3-b]pyridine-3-carbonitrile]	< 500 nM	1000 to 5000 nM
N[C@@H]1c2ccccc2CC12CCN(c1nc3nc(Sc4cc(O)ncc4Cl)cnc3[nH]1)CC2 [Example 241, (S)-4-((2-(1-amino-1,3-dihydrospiro[indene-2,4′-piperidin]-1′-yl)-1H-imidazo[4,5-b]pyrazin-5-yl)thio)-5-chloropyridin-2-ol]	500 to 3000 nM	1000 to 5000 nM
COc1cc(Sc2cnc3[nH]c(N4CCC5(CC4)Cc4ccccc4[C@H]5N)nc3n2)c(Cl)cn1 [Example 242, (S)-1′-(5-((5-chloro-2-methoxypyridin-4-yl)thio)-1H-imidazo[4,5-b]pyrazin-2-yl)-1,3-dihydrospiro[indene-2,4′-piperidin]-1-amine]	500 to 3000 nM	1000 to 5000 nM
N[C@@H]1c2ccccc2CC12CCN(c1cc3nc(Sc4cccc(Cl)c4Cl)cnc3[nH]1)CC2 [Example 243, (S)-1′-(2-((2,3-dichlorophenyl)thio)-5H-pyrrolo[2,3-b]pyrazin-6-yl)-1,3-dihydrospiro[indene-2,4′-piperidin]-1-amine]	< 500 nM	< 1000 nM
Nc1nccc(Sc2cnc3[nH]c(N4CCC5(CC4)Cc4ccc(CO)cc4[C@H]5N)nc3n2)c1Cl [Example 244, (S)-(1-amino-1′-(5-((2-amino-3-chloropyridin-4-yl)thio)-1H-imidazo[4,5-b]pyrazin-2-yl)-1,3-dihydrospiro[indene-2,4′-piperidin]-6-yl)methanol]	< 500 nM	< 1000 nM
Nc1nccc(Sc2cnc3[nH]c(N4CCC5(CC4)Cc4ccc(CF)cc4[C@H]5N)nc3n2)c1Cl [Example 245, (S)-1′-(5-((2-amino-3-chloropyridin-4-yl)thio)-1H-imidazo[4,5-b]pyrazin-2-yl)-6-(fluoromethyl)-1,3-dihydrospiro[indene-2,4′-piperidin]-1-amine]	< 500 nM	< 1000 nM
CCNc1nccc(Sc2cnc3[nH]c(N4CCC5(CC4)Cc4ccccc4[C@H]5N)nc3n2)c1Cl [Example 246, (S)-1′-(5-((3-chloro-2-(ethylamino)pyridin-4-yl)thio)-1H-imidazo[4,5-b]pyrazin-2-yl)-1,3-dihydrospiro[indene-2,4′-piperidin]-1-amine]	< 500 nM	> 5000 nM
N[C@@H]1c2ccccc2CC12CCN(c1nc3nc(Sc4ccnnc4Cl)cnc3[nH]1)CC2 [Example 247, (S)-1′-(5-((3-chloropyridazin-4-yl)thio)-1H-imidazo[4,5-b]pyrazin-2-yl)-1,3-dihydrospiro[indene-2,4′-piperidin]-1-amine]	< 500 nM	< 1000 nM
N[C@@H]1c2ccccc2CC12CCN(c1[nH]c3ncc(Sc4cccc(Cl)c4Cl)nc3c1Cl)CC2 [Example 248, (S)-1′-(7-chloro-2-((2,3-dichlorophenyl)thio)-5H-pyrrolo[2,3-b]pyrazin-6-yl)-1,3-dihydrospiro[indene-2,4′-piperidin]-1-amine]	< 500 nM	1000 to 5000 nM
N[C@@H]1c2ccccc2CC12CCN(c1nc3nc(N4CCCc5ncccc54)cnc3[nH]1)CC2 [Example 249, (S)-1′-(5-(3,4-dihydro-1,5-naphthyridin-1(2H)-yl)-1H-imidazo[4,5-b]pyrazin-2-yl)-1,3-dihydrospiro[indene-2,4′-piperidin]-1-amine]	< 500 nM	< 1000 nM
